Reference: article PMC4349623 (BMC Biochemistry, 2015)
Each block holds one compound with its values, some of them ahead of it.

Experiments:
CaM = experiment: Stern-Volmer quenching of CaM-bound ANS by acrylamide
Text: Given that steady state fluorescence cannot differentiate the intensity contribution from individual ANS molecules, we utilized time-correlated single-photon counting (TCSPC) spectrometry to measure the ANS fluorescence decay. […] The data was best fit with a three-exponential-decay function. The shortest lifetime (τ3 = ~0.3 ns) was assigned to that of free ANS molecules, which was confirmed by using an ANS solution alone. Note that this lifetime reaches the detection limitation of our instrument and therefore, it cannot be determined precisely. […] The fitting also provided the fractional (or relative amplitude), fs, which weights the “amount” of the emitting species, and the normalized pre-exponential value, Bs, which provides the relative concentration of each species. […] In other words, the long lifetime component of ANS is one order less quenched by acrylamide.
For a quenching that is purely by collision, the steady-state and lifetime Stern-Volmer quenching equation can be expressed as4 <τo>/<τ>=1+KsvQandKsv=kqxτ0 where τ and τo are the lifetime in the presence and absence of the quencher, and kq is the quenching rate constant.

[1] = ANS steady-state fluorescence (hydrophobicity probe); format: biochemical; settings: for ANS fold enhancement: pH 7.5, 0.1 M NaCl, 2 mM Ca^2+
Text: It is well known that the exposure of the hydrophobic patches of CaM is essential for target protein recognition. Such hydrophobic exposure can be photometrically monitored by its interaction with extrinsic 1-anilinonaphthalene 8-sulfonate (ANS) and 2-p-toluidinyl-naphthalene-6-sulfonate (TNS) molecules. These two fluorophores have been widely used as a probe for measuring hydrophobicity. ANS is a fluorescent dye which emits very weak fluorescence in water due to its excited charge transfer (CT) state that is quenched easily by water molecules. […] ANS fluorescence increases dramatically in a hydrophobic environment or when the rotational motion of its phenylamino group is restricted. […] The fluorescence increased when Ca^2+ was included in the mixture.
ANS fluorescence was excited at 350 nm.
Absorption measurements were carried out using a UV-1800 double-beam spectrometer (Shimadzu, Kyoto, Japan). The fluorescence spectra were recorded on a FluoroMax-3P (Horiba Scientific) equipped with a temperature control unit. For intrinsic Trp fluorescence, the excitation wavelength of 295 nm was chosen. […] The samples containing ANS or dansyl-labeled proteins were excited at 350 and 370 nm, respectively. The slit widths of 2 and 5 nm were typically chosen for excitation and emission, respectively, to eliminate photobleaching.

[2] = ANS binding by isothermal titration calorimetry; settings: 30 mM Hepes, 25°C
Text: The heat evolved is proportional to the amount of the ANS/Ca^2+-CaM complex formation. […] We fit the data with “one set of sites” to obtain the apparent association binding constant (Kapp) of 2.10 ± 0.11 × 10^3 M^−1 for Ca^2+-CaM (Table 1), consistent with a previous report. […] Based on our studies, the middle point from the ITC thermogram (and the inflection point in the corresponding derived binding isotherm) indicates approximately 4–6 bound-ANS molecules in Ca^2+-CaM. Therefore, Kapp is proportional to the actual number of protein-bound ANS molecules in the experimental condition. In the text below, we will discuss Kapp as the ANS binding affinity for simplicity.
The ITC data were fit with a “one set of sites” model as described in the Experimental section.
The ITC experiments were carried out on a VP-ITC (GE, Pittsburgh, PA). Protein samples were buffer-exchanged to the desired buffer. Peptide concentration was prepared by adding buffer to the peptide powder as measured by weight. All samples were degassed 15–30 min before loading. To avoid buffer mismatch, the syringe and sample cells were rinsed with the desired buffer prior to sample loading. A typical titration was performed by sequential injections every 120–180 sec of 5–10 μL solution at 25°C. The ITC raw data was corrected for the heat of titrant dilution determined by an experiment conducted in identical conditions except that no protein was contained in the sample cell. The corrected data, after integration of heat evolved, was fitted with Origin software provided by the manufacturer to determine Ka and the observed or apparent ΔH (ΔHapp).

[3] = Far-UV circular dichroism; settings: Ca^2+-bound, 0.1 mg/ml protein, 10 mM Tris, pH 7.5
Description: The CD spectra were recorded in a JASCO J-715 instrument (JASCO Corporation, Japan) equipped with a temperature control unit. CD spectra were recorded using a cylindrical 0.1 cm path length quartz curvet and were shown as the average of 3–6 scans using a spectra bandwidth of 1.0 nm. In all measurements, 0.1 mg/ml proteins in 10 mM Tris, pH 7.5 with 1–2 mM Ca^2+ or 0.5 mM EDTA were scanned from 190 nm to 260 nm.

[4] = target: CaM(1TnC): domain 1 of TnC and domains 2, 3 and 4 of CaM; experiment: ITC; 1 mM Orai-CMBD titrated into 30 uM CaM or chimera; 10 mM Tris, pH 7.5, 0.1 M NaCl, 2 mM Ca2+, 25°C; 'one set of sites' or two sequential binding sites model
dansyl-labeled CaM(1TnC) = experiment: stopped-flow fluorescence (dissociation chase); 5 uM dansyl-labeled CaM or chimera with 15 uM Orai-CMBD, 2 mM Ca2+, mixed with 75 uM unlabeled CaM, 2 mM Ca2+; dansyl fluorescence decay (excitation 370 nm), single exponential fit
[5] = ref [13]; cited from earlier work
Text: It is well known that the exposure of the hydrophobic patches of CaM is essential for target protein recognition. Such hydrophobic exposure can be photometrically monitored by its interaction with extrinsic 1-anilinonaphthalene 8-sulfonate (ANS) and 2-p-toluidinyl-naphthalene-6-sulfonate (TNS) molecules. These two fluorophores have been widely used as a probe for measuring hydrophobicity. ANS is a fluorescent dye which emits very weak fluorescence in water due to its excited charge transfer (CT) state that is quenched easily by water molecules.

[6] = no reference given; cited from earlier work
Text: (§1) Given the structural similarities and functional differences of CaM an ...

Ca^2+-ATPase = settings: ref [13]; cited from earlier work
Text: as §1

nNOS = settings: ref [12]; cited from earlier work
Text: as §1

Compound: O=S(=O)(O)c1cccc2cccc(Nc3ccccc3)c12 [ANS, 1-anilinonaphthalene 8-sulfonate]
kq (quenching rate constant), short lifetime (CaM; τ1 ANS): 2.2e+08 M⁻¹ s⁻¹
kq (quenching rate constant), τ2 (CaM; τ2 ANS): 1.9e+07 M⁻¹ s⁻¹

increase of ANS fluorescence intensity on Orai-CMBD binding ([1]; Ca^2+-bound protein): ~ 10%
K app ([2]; in the absence of salt, pH 7.5, 2 mM Ca^2+, apparent association constant, one set of sites): 2.10 ± 0.11 × 10^3 M^−1
K app ([2]; in the presence of salt and Orai-CMBD, pH 7.5, 0.1 M NaCl, 2 mM Ca^2+): 3.43 ± 0.65 × 10^3 M^−1
K app ([2]; in the presence of salt, pH 7.5, 0.1 M NaCl, 2 mM Ca^2+, apparent association constant): 3.69 ± 0.08 × 10^3 M^−1
Compound: Calmodulin [CaM]
ANS fluorescence change ([1]; absence of Ca^2+): exhibited no change
ANS enhancement ([1]; in the absence of salt, 30 mM Hepes, pH 7.5, 2 mM Ca^2+, spectra integration vs apo protein, at least three repeats, three protein batches): 3.01 ± 0.12 fold
ANS fold enhancement ([1]; in the presence of salt and Orai-CMBD, 30 mM Hepes, vs apo protein): 3.87 ± 0.10 fold
ANS fold enhancement ([1]; in the presence of salt, 30 mM Hepes, spectra integration vs apo protein): 3.49 ± 0.07 fold
ellipticity ratio θ220/θ209 [3]: ~ 1

Ka1 (first of two sequential sites) [4]: 757000 M⁻¹
Ka2 (second of two sequential sites) [4]: 17000 M⁻¹
dH1 (first of two sequential sites) [4]: -4.99 kcal/mol
dH2 (second of two sequential sites) [4]: -3.33 kcal/mol
stoichiometry N [4]: 2
koff (dansyl-labeled CaM(1TnC)): 2.44 s⁻¹
Compound: Orai-CMBD, 24-residue peptide corresponding to the CaM-binding domain of Orai1 (residues 68-91)

Compound: Troponin C [TnC]
interaction with ANS [5]: no interaction between TnC and ANS
Ca^2+ affinity of EF4 relative to that of CaM [6]: one order higher
affinity for Ca^2+-ATPase (Ca^2+-ATPase): very low affinity
binding to / activation of nNOS (nNOS): can neither bind to nor activate nNOS
